Test results: article PMC5357620, “The NiFe Hydrogenases of the Tetrachloroethene-Respiring Epsilonproteobacterium Sulfurospirillum multivorans: Biochemical Studies and Transcription Analysis” (Frontiers in Microbiology, 2017)

Target: T1, membrane-bound hydrogenase (MBH, HydABC) (Sulfurospirillum multivorans, UniProt A0AA86ALJ1+A0AA86ANH9+A0AA86DZD7)
T1 construct: gene hydB; HydA TAT signal peptide cleaved; predicted HydB 62, HydA 34, HydC 26 kDa; dimer of heterotrimers, about 270 kDa; with Periplasmic [NiFe] hydrogenase, large subunit
T1 sequence (A0AA86DZD7 1-561): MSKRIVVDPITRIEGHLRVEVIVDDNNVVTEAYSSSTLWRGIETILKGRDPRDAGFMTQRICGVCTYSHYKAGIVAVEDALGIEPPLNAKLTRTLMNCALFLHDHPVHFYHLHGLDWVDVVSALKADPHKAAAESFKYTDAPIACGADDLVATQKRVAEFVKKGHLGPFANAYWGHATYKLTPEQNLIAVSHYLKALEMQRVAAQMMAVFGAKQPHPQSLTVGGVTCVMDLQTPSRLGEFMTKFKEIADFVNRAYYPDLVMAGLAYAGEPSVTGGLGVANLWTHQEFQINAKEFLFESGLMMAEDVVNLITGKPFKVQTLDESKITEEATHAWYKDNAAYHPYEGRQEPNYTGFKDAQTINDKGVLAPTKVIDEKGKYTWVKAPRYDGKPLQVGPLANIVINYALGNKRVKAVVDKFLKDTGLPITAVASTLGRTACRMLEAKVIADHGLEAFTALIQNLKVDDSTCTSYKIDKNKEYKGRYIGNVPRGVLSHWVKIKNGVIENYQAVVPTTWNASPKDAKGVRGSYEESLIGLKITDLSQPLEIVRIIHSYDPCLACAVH
T1 sequence (A0AA86ALJ1 68-385): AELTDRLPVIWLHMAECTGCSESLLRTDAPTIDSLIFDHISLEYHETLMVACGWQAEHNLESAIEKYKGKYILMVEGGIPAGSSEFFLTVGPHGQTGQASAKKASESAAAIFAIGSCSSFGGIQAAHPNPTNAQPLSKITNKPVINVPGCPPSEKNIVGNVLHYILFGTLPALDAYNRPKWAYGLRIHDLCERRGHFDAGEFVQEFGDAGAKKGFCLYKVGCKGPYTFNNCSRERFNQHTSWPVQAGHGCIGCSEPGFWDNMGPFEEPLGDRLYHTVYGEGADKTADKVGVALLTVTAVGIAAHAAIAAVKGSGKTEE
T1 sequence (A0AA86ANH9 1-225): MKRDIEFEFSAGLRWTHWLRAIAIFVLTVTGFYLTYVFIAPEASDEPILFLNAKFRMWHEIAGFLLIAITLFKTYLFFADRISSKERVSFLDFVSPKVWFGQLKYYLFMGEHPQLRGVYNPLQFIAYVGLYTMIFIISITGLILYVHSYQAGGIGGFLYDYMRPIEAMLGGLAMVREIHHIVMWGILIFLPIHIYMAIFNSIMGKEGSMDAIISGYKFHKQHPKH
Assay: spectrophotometric H2-dependent DMN reduction, […] nm minus […] nm
Assay type: biochemical
Conditions: H2 as electron donor; 0.2 mM DMN; 50 mM glycylglycine pH 8.0; 0.5 mM DTT; electron acceptor, presumably via HydC cytochrome b; partially purified enzyme

Compound: CC1=C(C)C(=O)c2ccccc2C1=O [DMN, 2,3-dimethyl-1,4-naphthoquinone]
- spectrophotometric H2-dependent DMN reduction, 270 nm minus 290 nm: both fractions showed activity with DMN as electron acceptor
